The target of series [1] is T1, human recombinant GIP receptor (Homo sapiens, UniProt P48546).
T1 construct: expressed in transfected cells; host or cells: CHO-K1 clonal cells (membranes)
T1 sequence (P48546 22-466): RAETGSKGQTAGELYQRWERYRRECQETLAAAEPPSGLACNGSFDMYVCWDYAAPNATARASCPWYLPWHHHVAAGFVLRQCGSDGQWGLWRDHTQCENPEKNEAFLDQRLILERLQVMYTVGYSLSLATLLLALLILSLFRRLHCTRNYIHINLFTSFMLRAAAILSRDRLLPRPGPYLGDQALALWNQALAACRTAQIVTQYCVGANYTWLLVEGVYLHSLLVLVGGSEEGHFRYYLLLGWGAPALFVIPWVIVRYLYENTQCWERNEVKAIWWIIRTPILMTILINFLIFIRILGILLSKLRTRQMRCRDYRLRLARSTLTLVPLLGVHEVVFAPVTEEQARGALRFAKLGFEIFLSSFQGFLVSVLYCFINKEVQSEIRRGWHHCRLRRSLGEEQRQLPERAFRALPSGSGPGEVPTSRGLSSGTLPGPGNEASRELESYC
Nature of the series: In vitro hGIP receptor binding assay ([125I]GIP displacement, CHO-K1 membranes). The source says: A. In Vitro hGIP Receptor Binding Assay

A short description of series [2]: Human plasma half-life assay. As to conditions: human plasma, 37° C., LC-MS; read-out: Human Plasma T½ (converted). In kind it is in vitro ADME.
A short description of series [3]: Rat plasma half-life assay. As to conditions: rat plasma, 37° C., LC-MS; read-out: Rat Plasma T½ (converted). Type of series: in vitro ADME.

Where a SMILES comes first, the peptide text is derived from it. Where no end group is shown, it is not given here. [ ]: non-standard residue; d: D form. Ac6c = NC1(C(=O)O)CCCCC1; Nle = CCCC[C@H](N)C(=O)O; Ac5c = NC1(C(=O)O)CCCC1; Aib = CC(C)(N)C(=O)O

The term Ki denotes a measure of affinity in units of concentration, obtained from inhibition or displacement. As to `CCCC[C@H](NC(=O)C(C)(C)NC(=O)[C@@H](NC(=O)[C@H](CO)NC(=O)[C@H](Cc1ccc(O)cc1)NC(=O)[C@H](CC(=O)O)NC(=O)[C@H](CO)NC(=O)[C@@H](NC(=O)[C@H](Cc1ccccc1)NC(=O)[C@@H](NC(=O)CNC(=O)[C@H](CCC(=O)O)NC(=O)C(C)(C)NC(=O)[C@@H](N)Cc1ccc(O)cc1)[C@@H](C)O)[C@@H](C)CC)[C@@H](C)CC)C(=O)N[C@@H](CC(=O)O)C(=O)N[C@@H](CCCCN)C(=O)N[C@H](C(=O)N[C@@H](Cc1c[nH]cn1)C(=O)N[C@@H](CCC(N)=O)C(=O)N[C@@H](CCC(N)=O)C(=O)N[C@@H](CC(=O)O)C(=O)N[C@@H](Cc1ccccc1)C(=O)N[C@H](C(=O)N[C@@H](CC(N)=O)C(=O)N[C@@H](Cc1c[nH]c2ccccc12)C(=O)N[C@@H](CC(C)C)C(=O)N[C@@H](CC(C)C)C(=O)N[C@@H](C)C(=O)N[C@@H](CCC(N)=O)C(=O)N[C@@H](CCCCN)C(=O)NCC(=O)N[C@@H](CCCCN)C(=O)N[C@@H](CCCCN)C(=O)N[C@@H](CC(N)=O)C(=O)N[C@@H](CC(=O)O)C(=O)N[C@@H](Cc1c[nH]c2ccccc12)C(=O)N[C@@H](CCCCN)C(=O)N[C@@H](Cc1c[nH]cn1)C(=O)N[C@@H](CC(N)=O)C(=O)N[C@H](C(=O)N[C@H](C(=O)N[C@@H](CCC(N)=O)C(=O)O)[C@@H](C)O)[C@@H](C)CC)C(C)C)[C@@H](C)CC` [Example 57, (Aib^2, 13, Nle^14)hGIP(1-42)-OH], the Ki in series [1] came out at 0.05 nM. Moreover, the results for the half-life at 0.1 mg/ml in series [2] and in series [3] were 30.5 h and 13.8 h, respectively.
As for `CC[C@H](C)[C@H](NC(=O)[C@H](CCCCN)NC(=O)[C@H](CC(=O)O)NC(=O)[C@H](CCSC)NC(=O)C(C)(C)NC(=O)[C@@H](NC(=O)[C@H](CO)NC(=O)[C@H](Cc1ccc(O)cc1)NC(=O)[C@H](CC(=O)O)NC(=O)[C@H](CO)NC(=O)[C@@H](NC(=O)[C@H](Cc1ccccc1)NC(=O)[C@@H](NC(=O)CNC(=O)[C@H](CCC(=O)O)NC(=O)C(C)(C)NC(=O)[C@@H](N)Cc1ccc(O)cc1)[C@@H](C)O)[C@@H](C)CC)[C@@H](C)CC)C(=O)N[C@@H](Cc1c[nH]cn1)C(=O)N[C@@H](CCC(N)=O)C(=O)N[C@@H](CCC(N)=O)C(=O)N[C@@H](CC(=O)O)C(=O)N[C@@H](Cc1ccccc1)C(=O)N[C@H](C(=O)N[C@@H](CC(N)=O)C(=O)N[C@@H](Cc1c[nH]c2ccccc12)C(=O)N[C@@H](CC(C)C)C(=O)N[C@@H](CC(C)C)C(=O)N[C@@H](C)C(=O)N[C@@H](CCC(N)=O)C(=O)N[C@@H](CCCCN)C(=O)NCC(=O)N[C@@H](CCCCN)C(=O)N[C@@H](CCCCN)C(=O)N[C@@H](CC(N)=O)C(=O)N[C@@H](CC(=O)O)C(=O)N[C@@H](Cc1c[nH]c2ccccc12)C(=O)N[C@@H](CCCCN)C(=O)N[C@@H](Cc1c[nH]cn1)C(=O)N[C@@H](CC(N)=O)C(=O)N[C@H](C(=O)N[C@H](C(=O)N[C@@H](CCC(N)=O)C(=O)O)[C@@H](C)O)[C@@H](C)CC)C(C)C` [Example 60, (Aib^2, 13)hGIP(1-42)-OH], the Ki in series [1] was 0.05 nM. For the same molecule, the half-life at 0.1 mg/ml in series [2] is 26 h; in series [3] it was 10.5 h.
For `CCCC[C@H](NC(=O)[C@H](C)NC(=O)[C@@H](NC(=O)C1(NC(=O)[C@H](Cc2ccc(O)cc2)NC(=O)[C@H](CC(=O)O)NC(=O)[C@H](CO)NC(=O)[C@@H](NC(=O)[C@H](Cc2ccccc2)NC(=O)[C@@H](NC(=O)CNC(=O)[C@@H]2CCCN2C(=O)[C@H](C)NC(=O)[C@@H](N)Cc2ccc(O)cc2)[C@@H](C)O)[C@@H](C)CC)CCCC1)[C@@H](C)CC)C(=O)N[C@@H](CC(=O)O)C(=O)N[C@@H](CCCCN)C(=O)N[C@H](C(=O)N[C@@H](Cc1c[nH]cn1)C(=O)N[C@@H](CCC(N)=O)C(=O)N[C@@H](CCC(N)=O)C(=O)N[C@@H](CC(=O)O)C(=O)N[C@@H](Cc1ccccc1)C(=O)N[C@H](C(=O)N[C@@H](CC(N)=O)C(=O)N[C@@H](Cc1c[nH]c2ccccc12)C(=O)N[C@@H](CC(C)C)C(=O)N[C@@H](CC(C)C)C(=O)N[C@@H](C)C(=O)N[C@@H](CCC(N)=O)C(=O)N[C@@H](CCCCN)C(=O)O)C(C)C)[C@@H](C)CC` [Example 92, (Pro^3, A5c^11, Nle^14)hGIP(1-30)-OH] (H-YAPGTFISDY[Ac5c]IA[Nle]DKIHQQDFVNWLLAQK-OH; N-terminus and C-terminus assumed), in that order: 86.8 nM, 12 h and 1.6 h.
For `CCCC[C@H](NC(=O)C(C)(C)NC(=O)[C@@H](NC(=O)[C@H](CO)NC(=O)[C@H](Cc1ccc(O)cc1)NC(=O)[C@H](CC(=O)O)NC(=O)[C@H](CO)NC(=O)[C@@H](NC(=O)[C@H](Cc1ccccc1)NC(=O)[C@@H](NC(=O)CNC(=O)[C@@H]1CCCN1C(=O)C(C)(C)NC(=O)[C@@H](N)Cc1ccc(O)cc1)[C@@H](C)O)[C@@H](C)CC)[C@@H](C)CC)C(=O)N[C@@H](CC(=O)O)C(=O)N[C@@H](CCCCN)C(=O)N[C@H](C(=O)N[C@@H](Cc1c[nH]cn1)C(=O)N[C@@H](CCC(N)=O)C(=O)N[C@@H](CCC(N)=O)C(=O)N[C@@H](CC(=O)O)C(=O)N[C@@H](Cc1ccccc1)C(=O)N[C@H](C(=O)N[C@@H](CC(N)=O)C(=O)N[C@@H](Cc1c[nH]c2ccccc12)C(=O)N[C@@H](CC(C)C)C(=O)N[C@@H](CC(C)C)C(=O)N[C@@H](C)C(=O)N[C@@H](CCC(N)=O)C(=O)N[C@@H](CCCCN)C(N)=O)C(C)C)[C@@H](C)CC` [Example 108, (Aib^2, 13, Pro^3, Nle^14)hGIP(1-30)-NH2] (H-Y[Aib]PGTFISDYSI[Aib][Nle]DKIHQQDFVNWLLAQK-NH2; N-terminus assumed), in that order: 0.07 nM, 46.2 h and 45.6 h.
As to “Y[Aib]EGTFISDYSIA[Ac6c]DKIHQQDFVNWLLAQKGKKNDWKHNITQ-OH [Example 42, (Aib^2, A6c^14)hGIP(1-42)-OH]”, the Ki in series [1] was 0.07 nM. For the same molecule, the half-life at 0.1 mg/ml is 10.6 h in series [2] and 6.2 h in series [3].
For “Y[Aib]EGTFISDY[Aib]IA[Ac6c]DKIHQQDFVNWLLAQKGKKNDWKHNITQ-OH [Example 41, (Aib^2, 11, A6c^14)hGIP(1-42)-OH]”, in that order: 0.73 nM, 15.9 h and 13.3 h.
For “Y[Aib]EGTF[Ac6c]SDYSIAMDKIHQQDFVNWLLAQKGKKNDWKHNITQ-OH [Example 43, (Aib^2, A6c^7)hGIP(1-42)-OH]”, in that order: 0.3 nM, 8.8 h and 7.7 h.
For the molecule “Y[Aib]EGTF[Ac6c]SDYSIAMDKIHQQDFVNWLLAQKGKKNDWKHNI[Aib]Q-OH [Example 23, (Aib^2, 41, A6c^7)hGIP(1-42)-OH]”, the Ki in series [1] was 0.87 nM. In addition, the half-life at 0.1 mg/ml was more than 48 h in series [2] and 6.7 h in series [3].
For “Y[Aib]EGTF[Ac6c]SDYSI[Aib][Nle]DKIHQQDFVNWLLAQKGKKNDWKHNITQ-OH [Example 21, (Aib^2, 13, A6c^7, Nle^14)hGIP(1-42)-OH]”, in that order: 0.3 nM, more than 48 h and 12.3 h.

Source of the values: patent US9074014B2 (Ipsen Pharma S.A.S., priority 2008, dated 2015).
